Assay results as given in publication PMC5131364, “Pharmacologic modulation of RORγt translates to efficacy in preclinical and translational models of psoriasis and inflammatory arthritis” (Scientific Reports, 2016).

How the values were obtained:
[1] = target: T1, RORα (Homo sapiens, UniProt P35398); experiment: 1-hybrid reporter assay in HEK293T cells (GAL4-RORα); assay type: cell-based; conditions: HEK-293T
T1 construct: NP_599022, aa 305–556; expressed in transfected cells; host or cells: HEK293T
T1 sequence (P35398 272-523): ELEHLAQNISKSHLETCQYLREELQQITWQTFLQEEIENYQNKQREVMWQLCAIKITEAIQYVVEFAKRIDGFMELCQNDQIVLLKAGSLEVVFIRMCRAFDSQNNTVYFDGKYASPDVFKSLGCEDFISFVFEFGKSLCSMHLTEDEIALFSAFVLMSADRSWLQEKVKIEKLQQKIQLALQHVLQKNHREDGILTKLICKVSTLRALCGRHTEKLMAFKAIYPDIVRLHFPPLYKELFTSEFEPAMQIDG
Procedure: The reporter assay was performed by transient co-transfection of HEK293T cells with pCMV-BD (Stratagene #211342) containing the GAL4 DNA-binding domain fused with full-length human RORγt (Genbank accession no. NP_001001523, aa 1–497), pFR-Luc reporter and pRL-CMV reporter (Promega #E2261) plus Carrier DNA (Clontech # 630440) using PEI solution (Sigma Aldrich cat# 40872-7) in a 96-well plate. […] Medium was removed and cells were lysed with Passive Lysis Buffer (Promega). Firefly luciferase buffer was then added and firefly luciferase luminescence was read on BMG LUMIstar OPTIMA luminescence plate reader. One second later, renilla luciferase buffer was then added and renilla luciferase luminescence was read to measure cell viability. For RORα and RORβ activity, similar assays were performed except cells were transfected with pCMV-BD-RORα (Genbank accession no. NP_599022, aa 305–556) or pCMV-BD-RORβ (Genbank accession no. NP_008845, aa 201–459).

[2] = tested on: CD4+ T cells from draining lymph nodes restimulated with OVA; experiment: In vivo mouse Th17 differentiation (OVA/CFA) and in vitro restimulation; assay type: cell-based; conditions: 1 μM, OVA restimulation
Description: The following antibodies (anti-mouse or anti-human) were purchased from BD Biosciences (San Diego, CA) or eBioscience (San Diego, CA): anti-CD3-FITC (mouse 17A2 and human SK7), anti-CD4-allophycocyanin (APC), anti-CD4-PerCp, anti-CD4-FITC, anti-CD4-PE (mouse GK1.5 and human SK3), anti-CD44-PerCp (mouse IM7), anti-γδ TCR-FITC, anti-γδ TCR-PE (mouse GL3 and human B1), anti-CD62L-FITC (mouse MEL-14 and human SK11), anti-CD45RO-APC (human UCHL1), anti-CCR6-PE (human 11A9), anti-CD45-PerCp (mouse 30-F11). Human or mouse anti-IFNγ (mouse XMG1.2 and human 4S.B3), anti-TNFα (mouse MP6-XT22 and human MAB11), anti-IL-17A (mouse eBio17B7 and human eBio64DEC17), anti-IL-22 (mouse 1H8PWSR and human 22URTI), and anti-Foxp3 (mouse FJK-16s and human 36A/E7), all PE or APC conjugated, were purchased from eBioscience (San Diego, CA). Human and mouse APC conjugated CD1d tetramers pre-loaded with alpha-GalCer and negative controls were obtained from ProImmune. […] Cells were stained with fluorescence-labeled antibodies for surface marker, then fixed/permeabilized (eBioscience) and stained with antibodies for intracellular cytokines. […] The data were acquired on a FACS Calibur (BD Bioscience) and analyzed using FlowJo software (Tree Star, San Carlos, CA). […]

[3] = tested on: mouse iNKT cells; experiment: Mouse NKT cell in vitro activation; assay type: cell-based; conditions: IL-1β/IL-23 plus anti-IFNγ, 4 days, 1 μM
Description: The following antibodies (anti-mouse or anti-human) were purchased from BD Biosciences (San Diego, CA) or eBioscience (San Diego, CA): anti-CD3-FITC (mouse 17A2 and human SK7), anti-CD4-allophycocyanin (APC), anti-CD4-PerCp, anti-CD4-FITC, anti-CD4-PE (mouse GK1.5 and human SK3), anti-CD44-PerCp (mouse IM7), anti-γδ TCR-FITC, anti-γδ TCR-PE (mouse GL3 and human B1), anti-CD62L-FITC (mouse MEL-14 and human SK11), anti-CD45RO-APC (human UCHL1), anti-CCR6-PE (human 11A9), anti-CD45-PerCp (mouse 30-F11). […] Cells were stained with fluorescence-labeled antibodies for surface marker, then fixed/permeabilized (eBioscience) and stained with antibodies for intracellular cytokines. […] The data were acquired on a FACS Calibur (BD Bioscience) and analyzed using FlowJo software (Tree Star, San Carlos, CA).
Single cell suspension was generated from mouse mesenteric lymph-nodes. […] NKT cells were identified among total live cells using anti-CD3 and mouse conjugated CD1d-tetramer pre-loaded with alpha-GalCer, and cytokine-producing NKT cells were analyzed through intracellular staining. […]

[4] = tested on: iNKT cells from human PBMCs; experiment: Human NKT cell in vitro activation; assay type: cell-based; conditions: IL-1β/IL-23, 6 days, 1 μM
[5] = tested on: human CD4+ CD45RO+ CCR6+ T cells; experiment: Human memory CCR6+ T cells in vitro activation; assay type: cell-based
Description: The following antibodies (anti-mouse or anti-human) were purchased from BD Biosciences (San Diego, CA) or eBioscience (San Diego, CA): anti-CD3-FITC (mouse 17A2 and human SK7), anti-CD4-allophycocyanin (APC), anti-CD4-PerCp, anti-CD4-FITC, anti-CD4-PE (mouse GK1.5 and human SK3), anti-CD44-PerCp (mouse IM7), anti-γδ TCR-FITC, anti-γδ TCR-PE (mouse GL3 and human B1), anti-CD62L-FITC (mouse MEL-14 and human SK11), anti-CD45RO-APC (human UCHL1), anti-CCR6-PE (human 11A9), anti-CD45-PerCp (mouse 30-F11). Human or mouse anti-IFNγ (mouse XMG1.2 and human 4S.B3), anti-TNFα (mouse MP6-XT22 and human MAB11), anti-IL-17A (mouse eBio17B7 and human eBio64DEC17), anti-IL-22 (mouse 1H8PWSR and human 22URTI), and anti-Foxp3 (mouse FJK-16s and human 36A/E7), all PE or APC conjugated, were purchased from eBioscience (San Diego, CA). Human and mouse APC conjugated CD1d tetramers pre-loaded with alpha-GalCer and negative controls were obtained from ProImmune. For intracellular staining cells were stimulated for 4 hours at 37 °C with PMA and ionomycin (0.5 μg/ml each) in the presence of brefeldin A and monensin or with leukocyte activation cocktail (BD Bioscience, San Diego, CA). Cells were stained with fluorescence-labeled antibodies for surface marker, then fixed/permeabilized (eBioscience) and stained with antibodies for intracellular cytokines. For Foxp3 staining cells were fixed/permeabilized using transcription factor buffer set (eBioscience). The data were acquired on a FACS Calibur (BD Bioscience) and analyzed using FlowJo software (Tree Star, San Carlos, CA).
Human blood samples from healthy donors were provided by the Scripps Research Institute, La Jolla following Institutional Review Board approved protocol. Total CD4^+ T cells were isolated from the peripheral blood mononuclear cells (PBMCs) using a CD4^+ T cell Isolation Kit II (Miltenyl Biotec, Auburn, CA), following the manufacturer’s instructions. CCR6^+ cells were isolated from CD4^+ T cells using phycoerythrin (PE) conjugated anti-CCR6 antibody followed by anti-PE microbeads. Isolated CCR6^+ T cells were resuspended in culture medium and added to a 96-well plate which was pre-coated with 1 μg/ml anti-CD3 (BD Bioscience) at 1 × 10^5 cells per well. […] Cells were cultured at 37 °C and 5% CO2 for 6 days. Supernatants were assayed for accumulated cytokines using MSD multi-spot assay (Meso Scale Discovery, Rockville, MD) or R&D ELISA kit, and cells were used for intracellular staining.

[6] = tested on: PBMC from RA patients; experiment: IL-17A/IL-22 production from PBMC of rheumatoid arthritis patients; assay type: cell-based, human; conditions: anti-CD3/anti-CD28 plus IL-1β and IL-23, 3 days
Description: Frozen PBMCs of healthy and rheumatoid arthritis patients were obtained from SeraCare Life Sciences (Gaithersburg, MD). […] 3 days later, supernatants were collected and analyzed by MSD multi-spot assay or ELISA for IL-17A, IL-22 and IL-13 production.

Compound: COc1nc2ccc([C@@](O)(c3ccc(C)nc3C)c3cnnn3C)cc2c(Cl)c1Cc1ccc(C(F)(F)F)cc1 [JNJ-54271074]
- IC50 [1]: 4000 nM
- IL-17A+ and IL-17A+ IL-22+ CD4+ T cells [2]: significantly suppressed
- IL-22 single positive cells [2]: no effect
- IL-17A production by mouse iNKT cells [3]: suppressed
- IL-17A production by iNKT cells from human PBMCs [4]: suppressed
- IFNγ production ([5]; 1 μM): slightly increasing
- IL-22, TNFα and GM-CSF production ([5]; 1 μM): trend of decreasing
- increase of IL-10 production over the control ([5]; 1 μM): 49%
- number of IL-17A-producing cells (single- and double-positive) ([5]; 1 μM, flow cytometry): significantly decreased
- inhibition at 1 µM ([5]; Homo sapiens, T-cell, vs DMSO control, non-polarizing activation, read-out: inhibition of IL-17A production): 77%
- IC50 ([6]; Homo sapiens, PBMC, 72 h, read-out: IC50, IL-17A production from PBMC from RA subjects): 5 ± 1.2 nM
- efficacy, inhibition of IL-17A production ([6]; RA PBMC): 88%
- efficacy, inhibition of IL-22 production ([6]; RA PBMC): 44%
